# Source: ChEMBL document CHEMBL1133870, “Two novel cytotoxic and antimicrobial triterpenoids from Pseudolarix kaempferi” (Bioorg Med Chem Lett, 2001)
# What was measured:
# Micrococcus luteus = assay: Compound was tested for minimum inhibitory concentration against Micrococcus luteus ATCC 9341; assay type: functional
# Pseudomonas aeruginosa = assay: Compound was tested for minimum inhibitory concentration against Pseudomonas aeruginosa […]; assay type: functional
# Escherichia coli = assay: Compound was tested for minimum inhibitory concentration against Escherichia coli […]; assay type: functional
# Staphylococcus aureus = assay: Compound was tested for minimum inhibitory concentration against Staphylococcus aureus ATCC 25923; assay type: functional
# P388 = assay: Compound was tested for its cytotoxicity against P388 cell line; assay type: functional, cell-based; details: Mus musculus
# A549 = assay: Compound was tested for its cytotoxicity against A 549 cell line; assay type: functional, cell-based; details: Homo sapiens
MIC (Micrococcus luteus) [µM],MIC (Pseudomonas aeruginosa) [µM],MIC (Escherichia coli) [µM],MIC (Staphylococcus aureus) [µM],SMILES,IC50 (P388) [µM],IC50 (A549) [µM]
10,> 780,> 780,19,C=C[C@@](C)(/C=C/c1ccc(O)cc1)CCC=C(C)C [BAKUCHIOL],–,–
–,–,–,–,C[C@H](CC(=O)O)[C@]1(C)CC=C2C3=CCC4C(C)(C)[C@H](O)CC[C@]4(C)[C@@H]3CC[C@]21C (stereo partly specified),55,60
13,> 215,107,27,C[C@H](Cc1cc(C(=O)O)co1)[C@]1(C)CC=C2C3=CCC4C(C)(C)[C@H](O)CC[C@]4(C)[C@@H]3CC[C@]21C (stereo partly specified),50,54
48,> 750,> 750,48,C=CCc1ccc(O)c(-c2cc(CC=C)ccc2O)c1 [MAGNOLOL],–,–
